Test results as given in ChEMBL document CHEMBL1146534, “Synthetic method and biological activities of cis-fused alpha-methylene gamma-lactones” (2003).

Columns and labels:
Format in all cases: functional
P388 [1] = assay: Cytotoxicity against mouse P388 cells assessed as cell growth inhibitory ratio at 10 ug/mL after 48 hrs relative to control; parameters: scale not given: the % may be the effect or the level left
P388 [2] = assay: Cytotoxicity against mouse P388 cells assessed as cell growth inhibitory ratio at 1 ug/mL after 48 hrs relative to control; parameters: scale not given: the % may be the effect or the level left
P388 [3] = assay: Cytotoxicity against mouse P388 cells assessed as cell growth inhibitory ratio at 0.1 ug/mL after 48 hrs relative to control; parameters: scale not given: the % may be the effect or the level left
Rhizoctonia solani = assay: Prevention of Rhizoctonia solani-mediated sheath blight of rice disease at 500 ppm after 4 days at 28 degC by Pot test
Blumeria graminis = assay: Prevention of Erysiphe graminis-mediated powdery mildew of wheat disease at 500 ppm after 10 days at 22 deg C under fluorescent lamp by Pot test
Pythium aphanidermatum = assay: Prevention of Pythium aphanidermatum-mediated damping off of cucumber disease at 500 ppm/20 mL per pot after 14 days at 25 degC under green house by Pot test
Venturia inaequalis [4] = assay: Prevention of Venturia inaequalis-mediated scab of apple disease at 500 ppm by Pot test
Mycosphaerella [5] = assay: Antimicrobial activity against Mycosphaerella melonis at 200 ppm after 4 days at 28 degC
Pyrenophora graminea [6] = assay: Antimicrobial activity against Pyrenophora graminea at 200 ppm after 4 days at 28 degC
Alternaria [7] = assay: Antimicrobial activity against Alternaria kikuchiana at 200 ppm after 4 days at 28 degC
Venturia inaequalis [8] = assay: Antimicrobial activity against Venturia inaequalis at 200 ppm after 11 days at 18 degC
Rhynchosporium secalis [9] = assay: Antimicrobial activity against Rhynchosporium secalis at 200 ppm after 11 days at 18 degC
Mycosphaerella [10] = assay: Antimicrobial activity against Mycosphaerella melonis at 100 ppm after 4 days at 28 degC
Pyrenophora graminea [11] = assay: Antimicrobial activity against Pyrenophora graminea at 100 ppm after 4 days at 28 degC
Alternaria [12] = assay: Antimicrobial activity against Alternaria kikuchiana at 100 ppm after 4 days at 28 degC
Venturia inaequalis [13] = assay: Antimicrobial activity against Venturia inaequalis at 100 ppm after 11 days at 18 degC
Rhynchosporium secalis [14] = assay: Antimicrobial activity against Rhynchosporium secalis at 100 ppm after 11 days at 18 degC
Mycosphaerella [15] = assay: Antimicrobial activity against Mycosphaerella melonis at 50 ppm after 4 days at 28 degC
Pyrenophora graminea [16] = assay: Antimicrobial activity against Pyrenophora graminea at 50 ppm after 4 days at 28 degC
Alternaria [17] = assay: Antimicrobial activity against Alternaria kikuchiana at 50 ppm after 4 days at 28 degC
Rhynchosporium secalis [18] = assay: Antimicrobial activity against Rhynchosporium secalis at 50 ppm after 11 days at 18 degC
Venturia inaequalis [19] = assay: Antimicrobial activity against Venturia inaequalis at 50 ppm after 11 days at 18 degC

Which results are given for `C=C1C(=O)O[C@H]2CCCCC[C@@H]12`?
Activity (P388 [1]): 102%; Activity (P388 [2]): 76%; Activity (P388 [3]): 9%; Activity (Rhizoctonia solani): 0%; Activity (Blumeria graminis): 0%; Activity (Pythium aphanidermatum): 0%; Activity (Venturia inaequalis [4]): 90%

For `C=C1C(=O)O[C@H]2CC[C@H](C)CC[C@@H]12`, which Activity (P388 [1]) is on record?
The Activity was 102%.

And the Activity (P388 [2])?
Its Activity is 50%.

And the Activity (P388 [3])?
Its Activity is 15%.

And the Activity (Rhizoctonia solani)?
The Activity was 0%.

And the Activity (Blumeria graminis)?
Its Activity is 0%.

And the Activity (Pythium aphanidermatum)?
Its Activity is 100%.

And the Activity (Venturia inaequalis [4])?
The Activity was 0%.

`C=C1C(=O)O[C@H]2CC[C@@H](C)CC[C@@H]12` was tested. Which Activity (P388 [1]) did it give?
Its Activity is 101%.

And the Activity (P388 [2])?
The Activity was 69%.

And the Activity (P388 [3])?
The Activity was 38%.

And the Activity (Rhizoctonia solani)?
Its Activity is 0%.

What about the Activity (Blumeria graminis) of the same compound?
Its Activity is 0%.

And the Activity (Pythium aphanidermatum)?
Its Activity is 70%.

And the Activity (Venturia inaequalis [4])?
Its Activity is 0%.

How did the Activity (P388 [1]) turn out when `C=C1C(=O)O[C@H]2[C@@H](O)CCCC[C@@H]12` was run?
Its Activity is 100%.

What about the Activity (P388 [2]) of the same compound?
The Activity was 40%.

And the Activity (P388 [3])?
Its Activity is 11%.

What about the Activity (Mycosphaerella [5]) of the same compound?
Its Activity is 100%.

And the Activity (Pyrenophora graminea [6])?
Its Activity is 50%.

What about the Activity (Alternaria [7]) of the same compound?
Its Activity is 40%.

What about the Activity (Venturia inaequalis [8]) of the same compound?
Its Activity is 0%.

And the Activity (Rhynchosporium secalis [9])?
The Activity was 100%.

What about the Activity (Rhizoctonia solani) of the same compound?
Its Activity is 50%.

And the Activity (Blumeria graminis)?
The Activity was 50%.

And the Activity (Pythium aphanidermatum)?
Its Activity is 100%.

And the Activity (Venturia inaequalis [4])?
Its Activity is 0%.

And the Activity (Mycosphaerella [10])?
The Activity was 80%.

And the Activity (Pyrenophora graminea [11])?
Its Activity is 0%.

And the Activity (Alternaria [12])?
Its Activity is 20%.

What about the Activity (Venturia inaequalis [13]) of the same compound?
Its Activity is 50%.

What about the Activity (Rhynchosporium secalis [14]) of the same compound?
The Activity was 60%.

And the Activity (Mycosphaerella [15])?
The Activity was 70%.

What about the Activity (Pyrenophora graminea [16]) of the same compound?
The Activity was 0%.

What about the Activity (Alternaria [17]) of the same compound?
Its Activity is 0%.

And the Activity (Rhynchosporium secalis [18])?
Its Activity is 30%.

Which results are given for `CC1=C2CCCCC[C@@H]2OC1=O`?
Activity (P388 [1]): 43%; Activity (P388 [2]): 4%; Activity (P388 [3]): 7%

How did the Activity (Mycosphaerella [5]) turn out when `O=C1C[C@@H]2CCCC[C@H](O)[C@@H]2O1` was run?
Its Activity is 0%.

And the Activity (Pyrenophora graminea [6])?
The Activity was 0%.

And the Activity (Alternaria [7])?
The Activity was 0%.

What about the Activity (Venturia inaequalis [8]) of the same compound?
The Activity was 0%.

What about the Activity (Rhynchosporium secalis [9]) of the same compound?
The Activity was 0%.

And the Activity (Rhizoctonia solani)?
The Activity was 0%.

What about the Activity (Blumeria graminis) of the same compound?
Its Activity is 90%.

And the Activity (Pythium aphanidermatum)?
The Activity was 0%.

And the Activity (Venturia inaequalis [4])?
The Activity was 0%.

What about the Activity (Mycosphaerella [10]) of the same compound?
Its Activity is 0%.

What about the Activity (Pyrenophora graminea [11]) of the same compound?
The Activity was 0%.

And the Activity (Alternaria [12])?
The Activity was 0%.

And the Activity (Venturia inaequalis [13])?
Its Activity is 0%.

And the Activity (Rhynchosporium secalis [14])?
The Activity was 0%.

And the Activity (Mycosphaerella [15])?
Its Activity is 0%.

What about the Activity (Pyrenophora graminea [16]) of the same compound?
The Activity was 0%.

What about the Activity (Alternaria [17]) of the same compound?
The Activity was 0%.

And the Activity (Venturia inaequalis [19])?
The Activity was 0%.

What about the Activity (Rhynchosporium secalis [18]) of the same compound?
The Activity was 0%.

What does the source list for `C=C1C(=O)O[C@H]2[C@@H](OC(C)=O)CCCC[C@@H]12`?
Activity (P388 [1]): 102%; Activity (P388 [2]): 21%; Activity (P388 [3]): 9%; Activity (Rhizoctonia solani): 30%; Activity (Blumeria graminis): 30%; Activity (Pythium aphanidermatum): 100%; Activity (Venturia inaequalis [4]): 0%
